Broadly, the IC50 is the point on the concentration scale where inhibition reaches its midpoint.

These results are taken from ChEMBL document CHEMBL5113502, “Accommodation of ring C expanded deoxyvasicinone in the HDAC inhibitory pharmacophore culminates into a tractable anti-lung cancer agent and pH-responsive nanocarrier” (Eur J Med Chem, 2022).

What all share (type): functional, cell-based
One assay deals with A549. The experiment in a line: Cytotoxicity against human A549 cells assessed as cell viability after 48 hrs by MTT assay. Particulars: A549, 48 h. A general note: Formazan colour is commonly taken as a measure of viable cells.
In a further assay the test system is HOP-62. The experiment in a line: Cytotoxicity against human HOP-62 cells assessed as cell viability after 48 hrs by MTT assay. To be noted: HOP-62, 48 h.
The test system of another assay is NCI-H727. Kind of assay: Cytotoxicity against human NCI-H727 cells assessed as cell viability after 48 hrs by MTT assay. To be noted: NCI-H727, 48 h.

Turning to `O=C(CCCCCCCC(=O)Nc1ccc2nc3n(c(=O)c2c1)CCCCC3)NO`, the IC50 in the assay with A549 amounted to 12 µM. Regarding `O=C(CCCCCCC(=O)Nc1ccc2nc3n(c(=O)c2c1)CCCCC3)NO`, in the assay on A549, the IC50 was determined as 14 µM. Regarding `O=C(/C=C/c1ccc(CNc2ccc3nc4n(c(=O)c3c2)CCC4)cc1)NO`, the IC50 in the assay with HOP-62 amounted to 1.78 µM; in the assay on A549 it was 1.21 µM; in the assay with NCI-H727 it was 1.11 µM. Regarding `O=C(CCCCCC(=O)Nc1ccc2nc3n(c(=O)c2c1)CCCCC3)NO`, the IC50 with A549 came to 11 µM. As to `O=C(/C=C/c1ccc(CNc2ccc3nc4n(c(=O)c3c2)CCCCCC4)cc1)NO`, the IC50 was 1.95 µM with HOP-62, 1.89 µM with A549 and 1.78 µM with NCI-H727. As to `O=c1c2ccccc2nc2n1CCCCC2`, the IC50 in the assay on A549 was 6 µM. Consider `O=C(CCCCCCC(=O)Nc1ccc2nc3n(c(=O)c2c1)CCCC3)NO`, for which the IC50 with A549 was determined as 16 µM. `O=C(NO)c1ccc(CNc2ccc3nc4n(c(=O)c3c2)CCCCC4)cc1`: in the assay with A549, the IC50 turned out to be 10 µM. Still for that read-out and setting: as for `O=C(/C=C/c1cccc(S(=O)(=O)Nc2ccc3nc4n(c(=O)c3c2)CCCCC4)c1)NO`, the figure is 3 µM. Take `O=C(CCCCCCC(=O)Nc1ccc2nc3n(c(=O)c2c1)CCCCCC3)NO`: the IC50 with A549 amounted to 22 µM.

For the molecule `O=C(/C=C/c1ccc(CNc2ccc3nc4n(c(=O)c3c2)CCCC4)cc1)NO`, the figures for the IC50 with HOP-62, with A549 and with NCI-H727 were 1.71 µM, 1.56 µM and 1.34 µM, respectively. Turning to `O=C(NO)c1ccc(C(=O)Nc2ccc3nc4n(c(=O)c3c2)CCCCC4)cc1`, in the assay with A549, the half-maximal inhibitory concentration (IC50) is 9 µM. Turning to `O=C(CCCCCCCCC(=O)Nc1ccc2nc3n(c(=O)c2c1)CCCCC3)NO`, the IC50 in the assay with A549 was determined as 11 µM. Regarding `O=C(CCCCCCC(=O)Nc1ccc2nc3n(c(=O)c2c1)CCC3)NO`, the IC50 in the assay with A549 worked out at 17 µM.
